Test results reported in article PMC10608985, “Retention Behavior of Anticancer Thiosemicarbazides in Biomimetic Chromatographic Systems and In Silico Calculations” (Molecules, 2023).

Columns and labels:
[1] = HPLC lipophilicity on cholesterol (Chol) stationary phase; assay type: physicochemical; conditions: pH 7.4; for Log k Chol: Table S3; for log kw Chol: intercept, linear extrapolation to water; for log kw Chol / -S Chol: MeOH/20 mM acetate buffer; for -S Chol: slope of Soczewiński–Wachtmeister equation
Protocol: (§1) For the evaluation of the compounds the following stationary phases were used: C-18; biomimetic, IAM; cholesterol (Chol); immobilized proteins HSA and AGP. For the lipophilicity determination, MeOH (C-18, Chol) or ACN (IAM) were applied as the organic modifiers. The measurements were performed at pH 7.4 of the mobile phase. The regular changes in the retention of all solutes used as organic modifier content in the mobile phase on three studied stationary phases were found. It is expressed by the Soczewiński–Wachtmeister Equation (1):log k = log kw + S (% organic modifier)(1) where log kw—the intercept; S—the slope of regression curve. […] Log kw as well as S parameters are commonly applied as lipophilicity descriptors.
(§2) HPLC measurements were performed using a liquid chromatograph Knauer (Knauer, Berlin, Germany) with a dual pump, a 20 µL simple injection valve, and a UV–visible detector. The compounds were detected under UV light at 280 nm at room temperature. The retention time of an unretained solute (t0) was determined by the injection of a small amount of citric acid dissolved in water.
Cogent 4 UDC Cholesterol (150 × 2.1 mm, 4 µm) MicroSolv Technology Corporation (Leland, NC, USA) column was used. The mobile phase consisted of different volume mixtures of MeOH as the organic modifier and 20 mM acetate buffer as the aqueous phase, to obtain pH = 7.4. The concentrations of the organic modifier were in the range from 0.3 to 0.8 (v/v) with step 0.05 or 0.1 (Table S3 in the Supplementary Materials). The flow rate was 0.35 mL × min^−1.

[2] = set-up: method as in Kozyra et al. [31]; conditions: MeOH/20 mM acetate buffer, pH 7.4, ref Kozyra et al. [31], cited from earlier work; for log kw C-18: intercept of Soczewiński–Wachtmeister equation (water as mobile phase); for -S C-18: slope of Soczewiński–Wachtmeister equation
[3] = molecular target: T1, human serum albumin (HSA) (Homo sapiens, UniProt P02768); test: HPLC on immobilized HSA column, affinity and % plasma–protein binding; assay type: in vitro ADME; conditions: for log K HSA: binding equilibrium constant from calibration curve (Equation 8) of log k HSA; for fraction unbound: human, pH 7.4, % plasma–protein binding converted from log K HSA (Equation 10), read-out: %PPB HSA (converted); for log k HSA: retention on HSA column, 50 mM ammonium acetate pH 7.4 / propan-2-ol 85/15 (v/v)
T1 construct: purchased Chiralpac
Protocol: (§3) Measurements on HSA and AGP immobilized protein columns were carried out with […] isopropanol content in the aqueous mobile phase.
(§4) The standard calibration curve was used to predict log K values (K—binding equilibrium constant) of investigated compounds to HSA and AGP. Next, the log K values were converted into a percentage of plasma–protein binding (%PPB) of the compounds (Table 2). […] It is the lowest for compound 16 with -NO2 substituent, unsubstituted compound 1, and fluorine derivatives 2 and 9. In a group of […] derivatives in the same position of the phenyl ring, the %PPB to AGP increases with the increase in the atomic weight of the halogen atom and the lipophilicity of the molecule.
as §2
(§5) A human serum albumin (HSA) immobilized on the 5 µm silica gel column 100 × 3 mm (Chiralpac) and an α1-acid glycoprotein (AGP) immobilized on the 5 µm silica gel column 100 × 4 mm (Chiralpac) were used. The compounds were dissolved at 0.5 mg/mL concentration in 50% propan-2-ol and ammonium acetate solution (pH = 7.4) mixtures for HSA measurements. The mobile phase was composed of 50 mM ammonium acetate solution (pH = 7.4) and propan-2-ol at 85/15 (v/v) for AGP, respectively. The flow of mobile phases was 0.5 mL×min^−1. Log k values for the selected mobile phase were determined for all studied compounds and standard substances. The % protein plasma binding (% PPB) values were calculated from the calibration curve according to Valko et al..
(§6) Calibration of the protein columns: The column performance check and the calibration check were performed before measurements. The racemic mixture of warfarin was used for their performance evaluation. The following calibration set of drugs was applied: bromazepam, carbamazepine, diclofenac, nicardipine, nizatidine, piroxicam for HSA and bromazepam, chlorpromazine, imipramine, nicardipine, nizatidine, propranolol, and warfarin for AGP. The analytical standards were purchased from Sigma Aldrich Steinhen, Steinheim am Albuch, Germany). The drugs were dissolved at 0.5 mg/mL concentration in 50% propan-2-ol and ammonium acetate solution mixtures (pH = 7.4). The obtained log k values from HPLC were plotted against the log K values (K—binding equilibrium constant, log K—linearized PPB) based on the literature data for plasma–protein binding (%, PPB). The following relationships were obtained: log KHSA = 0.2513 (±0.0984) + 1.0525 (±0.1171) log k HSA(8) n=6, R=0.9761, R^2 = 0.9528, Radj2 = 0.9410, s = 0.1948 log KAGP = 0.1733 (±0.0574) + 0.8902 (±0.0787) log k AGP(9) n=7, R=0.9810, R^2 = 0.9623, Radj2 = 0.9548, s = 0.1113
(§7) Log K values were converted into %PPB using the following equation [15]:(10) %PPB=101×10^logK/1+10^logK

[4] = system: α1-acid glycoprotein (AGP); test: HPLC on immobilized AGP column, affinity and % plasma–protein binding; assay type: in vitro ADME, human; conditions: for log K AGP: binding equilibrium constant from calibration curve (Equation 9) of log k AGP; for fraction unbound: human, pH 7.4, % plasma–protein binding converted from log K AGP (Equation 10), read-out: %PPB AGP (converted); for log k AGP: retention on AGP column, 50 mM ammonium acetate pH 7.4 / propan-2-ol 85/15 (v/v)
Protocol: as §3, §4, §2, §5, §6, §7

[5] = HPLC lipophilicity on IAM (immobilized artificial membrane, phosphatidylcholine) stationary phase; assay type: physicochemical; conditions: pH 7.4; for Log k IAM: Table S2; for log kw IAM: intercept, linear extrapolation to water; for log kw IAM / -S IAM: ACN/20 mM phosphate buffer; for -S IAM: slope of Soczewiński–Wachtmeister equation
Protocol: as §1, §2
A Rexchrom IAM.PC.DD2 (12 μm, 100 × 4.6 mm, 300 Å) (Regis Technologies, Morton Grove, IL, USA) column was used as the stationary phase. The compounds were dissolved at a concentration of 0.5 mg × mL^−1 in MeOH. The mobile phases consisted of different volume fractions of ACN and 20 mM phosphate buffer; the aqueous phase maintained a pH = 7.4 (0.02 M KH2PO4, Na2HPO4 and 0.15 M KCl). The acetonitrile concentration ranged from 0.05 to 0.4 (v/v), depending on the structure of compound, at 0.05 intervals (Table S2 in the Supplementary Materials). The flow rate was 1 mL × min^−1.

T1 sequence (P02768 25-609): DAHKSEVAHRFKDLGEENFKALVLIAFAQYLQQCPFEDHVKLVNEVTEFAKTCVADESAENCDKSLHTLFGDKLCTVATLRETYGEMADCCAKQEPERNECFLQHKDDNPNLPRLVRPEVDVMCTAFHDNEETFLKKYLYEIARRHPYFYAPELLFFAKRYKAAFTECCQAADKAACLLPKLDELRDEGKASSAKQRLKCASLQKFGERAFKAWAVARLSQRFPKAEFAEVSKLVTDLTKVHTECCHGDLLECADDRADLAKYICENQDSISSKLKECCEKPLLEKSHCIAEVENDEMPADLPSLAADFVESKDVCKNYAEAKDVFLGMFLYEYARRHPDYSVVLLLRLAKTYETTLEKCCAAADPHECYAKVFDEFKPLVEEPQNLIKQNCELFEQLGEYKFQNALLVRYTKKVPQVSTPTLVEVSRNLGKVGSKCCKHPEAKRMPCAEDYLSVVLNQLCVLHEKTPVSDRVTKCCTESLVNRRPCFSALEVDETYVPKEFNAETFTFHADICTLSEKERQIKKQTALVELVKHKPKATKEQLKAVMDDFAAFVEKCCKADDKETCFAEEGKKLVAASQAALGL

Row | SMILES | Log k Chol ([1]; MeOH 0.40 v/v in mobile phase) | Log k Chol ([1]; MeOH 0.45 v/v in mobile phase) | Log k Chol ([1]; MeOH 0.50 v/v in mobile phase) | Log k Chol ([1]; MeOH 0.60 v/v in mobile phase) | Log k Chol ([1]; MeOH 0.80 v/v in mobile phase) | log kw Chol [1] | -S Chol [1] | log K HSA [3] | log k HSA [3] | log K AGP [4] | fraction unbound [4] | log k AGP [4] | Log k IAM ([5]; ACN 0.15 v/v in mobile phase) | Log k IAM ([5]; ACN 0.20 v/v in mobile phase) | Log k IAM ([5]; ACN 0.25 v/v in mobile phase) | Log k IAM ([5]; ACN 0.30 v/v in mobile phase) | Log k IAM ([5]; ACN 0.35 v/v in mobile phase) | log kw IAM [5] | log kw C-18 [2] | -S C-18 [2] | other results
1 | O=C(COc1ccccc1)NNC(=S)Nc1cccc(Br)c1 [Compound 7] | 1.284 | 0.913 | 0.720 | 0.347 | -0.987 | 3.4508 | 5.4314 | 2.2501 | 1.8991 | 0.6968 | 0.159 | 0.5881 | 1.120 | 0.777 | 0.413 | -0.038 | -0.196 | 2.1389 | 2.8451 | 4.8454 | Log k Chol ([1]; MeOH 0.70 v/v in mobile phase): -0.309; -S IAM [5]: 6.8947
2 | O=C(COc1ccccc1)NNC(=S)Nc1ccccc1I [Compound 4] | 0.747 | 0.519 | 0.244 | -0.037 | -0.938 | 2.3754 | 4.1215 | 1.5037 | 1.1899 | 0.6707 | 0.168 | 0.5588 | 0.893 | 0.642 | 0.451 | -0.029 | -0.138 | 1.7099 | 2.4824 | 4.4182 | Log k Chol ([1]; MeOH 0.30 v/v in mobile phase): 1.105; Log k Chol ([1]; MeOH 0.35 v/v in mobile phase): 0.974; fraction unbound [3]: 0.021; Log k IAM ([5]; ACN 0.10 v/v in mobile phase): 1.158; -S IAM [5]: 5.3942
3 | O=C(COc1ccccc1)NNC(=S)Nc1cccc(Cl)c1 [Compound 6] | 1.016 | 0.766 | 0.422 | 0.160 | -0.975 | 2.9670 | 4.8849 | 1.3217 | 1.0170 | 0.6152 | 0.187 | 0.4964 | 0.982 | 0.647 | 0.333 | -0.082 | -0.247 | 1.9101 | 2.7672 | 4.8532 | Log k Chol ([1]; MeOH 0.35 v/v in mobile phase): 1.270; fraction unbound [3]: 0.036; Log k IAM ([5]; ACN 0.10 v/v in mobile phase): 1.270; -S IAM [5]: 6.3395

Second part, led by results:

Row | Log k Chol ([1]; MeOH 0.40 v/v in mobile phase) | Log k Chol ([1]; MeOH 0.45 v/v in mobile phase) | Log k Chol ([1]; MeOH 0.50 v/v in mobile phase) | Log k Chol ([1]; MeOH 0.60 v/v in mobile phase) | Log k Chol ([1]; MeOH 0.80 v/v in mobile phase) | log kw Chol [1] | -S Chol [1] | log K HSA [3] | log k HSA [3] | log K AGP [4] | fraction unbound [4] | log k AGP [4] | Log k IAM ([5]; ACN 0.15 v/v in mobile phase) | Log k IAM ([5]; ACN 0.20 v/v in mobile phase) | Log k IAM ([5]; ACN 0.25 v/v in mobile phase) | Log k IAM ([5]; ACN 0.30 v/v in mobile phase) | Log k IAM ([5]; ACN 0.35 v/v in mobile phase) | log kw IAM [5] | SMILES | log kw C-18 [2] | -S C-18 [2] | other results
4 | 0.696 | 0.523 | 0.179 | -0.078 | -0.997 | 2.4029 | 4.2398 | 1.2852 | 0.9823 | 0.3891 | 0.283 | 0.2424 | 0.336 | 0.088 | -0.150 | -0.484 | -0.467 | 1.1652 | O=C(COc1ccccc1)NNC(=S)Nc1ccc(F)cc1 [Compound 9] | 2.1145 | 4.2984 | Log k Chol ([1]; MeOH 0.30 v/v in mobile phase): 1.111; Log k Chol ([1]; MeOH 0.35 v/v in mobile phase): 0.970; fraction unbound [3]: 0.04; Log k IAM ([5]; ACN 0.05 v/v in mobile phase): 1.054; Log k IAM ([5]; ACN 0.10 v/v in mobile phase): 0.588; -S IAM [5]: 5.1370
5 | 1.108 | 0.878 | 0.510 | 0.379 | -0.975 | 3.1664 | 5.0386 | 1.6830 | 1.3603 | 0.6672 | 0.169 | 0.5548 | 0.821 | 0.513 | 0.282 | -0.101 | -0.280 | 1.6998 | CSc1ccc(NC(=S)NNC(=O)COc2ccccc2)cc1 [Compound 17] | 2.6753 | 4.6859 | Log k Chol ([1]; MeOH 0.35 v/v in mobile phase): 1.434; Log k Chol ([1]; MeOH 0.70 v/v in mobile phase): -0.316; fraction unbound [3]: 0.011; Log k IAM ([5]; ACN 0.10 v/v in mobile phase): 1.147; -S IAM [5]: 5.7908
6 | 1.158 | 0.871 | 0.571 | 0.276 | -0.886 | 3.1674 | 5.0251 | 2.0248 | 1.685 | 0.6344 | 0.18 | 0.518 | 1.141 | 0.792 | 0.453 | 0.004 | -0.111 | 2.1020 | O=C(COc1ccccc1)NNC(=S)Nc1ccc(Br)cc1 [Compound 11] | 2.734 | 4.6183 | Log k Chol ([1]; MeOH 0.35 v/v in mobile phase): 1.437; -S IAM [5]: 6.5856
